Experimental data reported in patent US6720324B2, “Selective melanin concentrating hormone-1 (MCH1) receptor antagonists and uses thereof” (Synaptic Pharmaceutical Corporation, priority 2000, dated 2004).
Like-named read-outs stand apart in the source and are kept apart here.

Experiments:
Assay in all cases: Radioligand binding assay, cloned receptor
human GALR1 = molecular target: T1, human GALR1 (Homo sapiens, UniProt P47211); settings: read-out: hGALR1 Ki
T1 construct: expressed in transfected cells
T1 sequence (P47211 1-349): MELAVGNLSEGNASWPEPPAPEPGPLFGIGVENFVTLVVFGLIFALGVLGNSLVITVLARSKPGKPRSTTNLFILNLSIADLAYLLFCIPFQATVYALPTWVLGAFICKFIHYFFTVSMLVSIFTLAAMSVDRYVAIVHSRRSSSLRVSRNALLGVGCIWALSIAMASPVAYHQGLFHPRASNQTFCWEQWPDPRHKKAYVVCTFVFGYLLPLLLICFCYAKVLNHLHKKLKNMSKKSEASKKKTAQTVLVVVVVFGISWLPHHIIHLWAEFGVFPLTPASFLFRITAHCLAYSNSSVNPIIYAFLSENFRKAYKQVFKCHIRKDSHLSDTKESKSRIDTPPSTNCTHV
Procedure: (§1) For binding assays, pellets of transfected cells are suspended in ice-cold buffer (20 mM Tris.HCl, 5 mM EDTA, pH 7.4) and homogenized by sonication for 7 sec. The cell lysates are centrifuged at 200×g for 5 min at 4° C. The supernatants are then centrifuged at 40,000×g for 20 min at 4° C. The resulting pellets are washed once in the homogenization buffer and suspended in binding buffer (see methods for radioligand binding). Protein concentrations are determined by the method of Bradford (1976) using bovine serum albumin as the standard. Binding assays are usually performed immediately, however it is possible to prepare membranes in batch and store frozen in liquid nitrogen for future use.
(§2) The methods to obtain the cDNA of the human NPY1, NPY5, GALR1, GALR2, and GALR3 and rat 5-HT2C receptors, express said receptors in heterologous systems, and carry out assays to determine binding affinity are described in the following publications and above: human NPY1 (Larhammar et al., 1992), human NPY5 (U.S. Pat. No. 5,602,024, the disclosure of which is hereby incorporated by reference in its entirety into this application), human Gal1 (Habert-Ortoli et al., 1994), human Gal2 (Smith et al., 1997), human Gal3 (Smith et al., 1998), and rat 5-HT2C (Julius et al., 1988).

human NPY5 = molecular target: T2, human NPY5 (Homo sapiens, UniProt Q15761); settings: read-out: hNPY5 Ki
T2 construct: expressed in transfected cells
T2 sequence (Q15761 1-445): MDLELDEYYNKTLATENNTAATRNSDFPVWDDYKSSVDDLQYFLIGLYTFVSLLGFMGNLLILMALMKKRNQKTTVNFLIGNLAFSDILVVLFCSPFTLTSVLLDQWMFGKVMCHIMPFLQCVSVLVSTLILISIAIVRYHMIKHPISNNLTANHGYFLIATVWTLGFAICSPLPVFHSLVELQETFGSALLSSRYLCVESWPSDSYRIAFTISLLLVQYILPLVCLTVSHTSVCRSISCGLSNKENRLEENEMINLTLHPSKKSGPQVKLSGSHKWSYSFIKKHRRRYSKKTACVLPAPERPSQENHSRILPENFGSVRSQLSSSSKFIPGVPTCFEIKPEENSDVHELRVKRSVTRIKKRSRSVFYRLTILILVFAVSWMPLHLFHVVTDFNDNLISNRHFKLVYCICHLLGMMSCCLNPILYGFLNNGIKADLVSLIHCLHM
Procedure: as §1, §2

human GALR2 = molecular target: T3, human GALR2 (Homo sapiens, UniProt O43603); settings: read-out: hGALR2 Ki
T3 construct: expressed in transfected cells
T3 sequence (O43603 1-387): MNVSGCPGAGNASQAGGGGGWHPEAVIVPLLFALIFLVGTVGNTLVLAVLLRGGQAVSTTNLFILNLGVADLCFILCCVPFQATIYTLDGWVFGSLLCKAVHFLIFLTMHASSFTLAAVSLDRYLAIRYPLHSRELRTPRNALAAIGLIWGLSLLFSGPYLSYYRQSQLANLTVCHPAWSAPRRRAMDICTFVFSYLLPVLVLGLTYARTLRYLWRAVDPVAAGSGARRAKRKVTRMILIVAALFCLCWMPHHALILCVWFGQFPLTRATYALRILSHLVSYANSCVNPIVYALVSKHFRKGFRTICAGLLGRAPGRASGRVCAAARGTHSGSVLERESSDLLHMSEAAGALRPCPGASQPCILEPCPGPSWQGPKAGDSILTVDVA
Procedure: as §1, §2

human NPY1 = molecular target: T4, human NPY1 (Homo sapiens, UniProt P25929); settings: read-out: hNPY1 Ki
T4 construct: expressed in transfected cells
T4 sequence (P25929 1-384): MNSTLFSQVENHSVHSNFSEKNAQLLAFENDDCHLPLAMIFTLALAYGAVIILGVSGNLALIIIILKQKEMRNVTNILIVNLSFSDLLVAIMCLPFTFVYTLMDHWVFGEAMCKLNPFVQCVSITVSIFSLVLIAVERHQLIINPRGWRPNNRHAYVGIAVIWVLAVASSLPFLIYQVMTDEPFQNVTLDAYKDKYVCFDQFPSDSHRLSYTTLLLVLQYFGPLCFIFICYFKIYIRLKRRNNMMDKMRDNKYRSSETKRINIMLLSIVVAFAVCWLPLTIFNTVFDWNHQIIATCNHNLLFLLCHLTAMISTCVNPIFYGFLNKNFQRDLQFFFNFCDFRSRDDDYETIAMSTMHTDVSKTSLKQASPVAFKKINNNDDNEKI
Procedure: as §1, §2

Measured: Ki

2-(3,4-DIFLUOROPHENYL)4,5-DIHYDROIMIDAZOLE-1-CARBOXYLIC ACID {3-[4-PHENYL-4-(4-BROMO-5-METHYLTHIOPNEN-2-YL)]PROPYL}-AMIDE [Example 19]
> 50 µM: human GALR1; Table 2 | human GALR1; Table 3 | human NPY5; Table 2 | human NPY5; Table 3 | human GALR2; Table 2 | human GALR2; Table 3 | human NPY1; Table 2 | human NPY1; Table 3
